Molecular target: T1, a4b7 integrin interaction with MadCAM-1 (Homo sapiens, UniProt P13612+P26010)
T1 construct: capture of a4b7 integrin expressing cells, RPMI8866; endogenous in cells; host or cells: RPMI8866
T1 sequence (P13612 34-1032): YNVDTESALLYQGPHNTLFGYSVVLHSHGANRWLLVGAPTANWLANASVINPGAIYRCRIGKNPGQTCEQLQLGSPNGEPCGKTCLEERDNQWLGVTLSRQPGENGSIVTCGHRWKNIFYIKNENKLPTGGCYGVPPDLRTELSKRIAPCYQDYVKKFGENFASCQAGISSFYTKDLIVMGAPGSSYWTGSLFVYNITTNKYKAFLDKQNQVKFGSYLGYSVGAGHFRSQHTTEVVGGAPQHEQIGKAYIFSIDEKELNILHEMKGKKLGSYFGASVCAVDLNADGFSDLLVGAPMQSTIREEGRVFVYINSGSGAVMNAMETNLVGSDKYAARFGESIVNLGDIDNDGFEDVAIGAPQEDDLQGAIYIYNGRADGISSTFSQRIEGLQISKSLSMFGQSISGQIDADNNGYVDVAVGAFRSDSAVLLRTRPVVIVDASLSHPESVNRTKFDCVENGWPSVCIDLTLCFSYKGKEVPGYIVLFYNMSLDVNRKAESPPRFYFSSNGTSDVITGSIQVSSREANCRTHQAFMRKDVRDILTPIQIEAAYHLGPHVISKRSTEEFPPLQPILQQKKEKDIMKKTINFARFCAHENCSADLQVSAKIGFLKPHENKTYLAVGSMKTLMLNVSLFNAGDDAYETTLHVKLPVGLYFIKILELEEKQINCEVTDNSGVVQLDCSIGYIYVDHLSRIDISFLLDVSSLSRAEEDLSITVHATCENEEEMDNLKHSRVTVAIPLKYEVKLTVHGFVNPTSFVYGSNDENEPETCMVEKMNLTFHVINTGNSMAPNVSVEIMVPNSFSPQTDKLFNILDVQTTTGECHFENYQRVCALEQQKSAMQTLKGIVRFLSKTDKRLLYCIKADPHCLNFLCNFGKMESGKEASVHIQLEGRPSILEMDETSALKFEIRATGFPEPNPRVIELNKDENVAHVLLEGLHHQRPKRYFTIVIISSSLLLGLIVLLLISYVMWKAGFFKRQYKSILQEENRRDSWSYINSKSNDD
T1 sequence (P26010 20-798): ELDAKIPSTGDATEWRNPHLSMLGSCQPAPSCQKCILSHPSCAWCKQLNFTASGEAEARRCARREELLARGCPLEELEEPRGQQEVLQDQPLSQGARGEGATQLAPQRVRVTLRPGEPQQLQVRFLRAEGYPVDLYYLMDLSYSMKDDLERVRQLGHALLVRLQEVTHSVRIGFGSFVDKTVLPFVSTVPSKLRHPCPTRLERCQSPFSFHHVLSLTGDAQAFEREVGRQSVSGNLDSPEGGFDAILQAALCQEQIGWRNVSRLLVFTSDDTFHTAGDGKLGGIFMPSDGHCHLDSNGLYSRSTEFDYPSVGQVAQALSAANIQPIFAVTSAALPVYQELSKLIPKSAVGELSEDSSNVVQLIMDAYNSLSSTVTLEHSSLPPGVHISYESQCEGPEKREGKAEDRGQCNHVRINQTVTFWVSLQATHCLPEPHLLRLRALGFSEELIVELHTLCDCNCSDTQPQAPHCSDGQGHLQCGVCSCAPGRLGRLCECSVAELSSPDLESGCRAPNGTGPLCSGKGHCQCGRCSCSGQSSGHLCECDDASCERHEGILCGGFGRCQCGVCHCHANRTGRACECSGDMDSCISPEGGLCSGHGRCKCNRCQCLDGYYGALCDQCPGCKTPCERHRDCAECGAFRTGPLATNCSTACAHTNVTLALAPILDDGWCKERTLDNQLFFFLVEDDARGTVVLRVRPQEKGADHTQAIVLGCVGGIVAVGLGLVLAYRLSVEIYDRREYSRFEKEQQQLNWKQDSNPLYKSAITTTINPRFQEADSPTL
Assay: a4b7 Cell Capture Assay (RPMI8866 cells on MAdCAM-1 Fc coated plates)
Format: cell-based
Details: 50% human serum, 1 mM MgCl2, 1 hour incubation, CellTiter-Glo luminescence, read-out: a4B7 cell capture assay RMPI8866-MadCAM EC50
Procedure, shortened: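 RPMI8866 cells (1.0×10^6 cells/mL) in 1 mM MgCl2, 25 mM HEPES, 50% human serum were added to plates coated with human MAdCAM-1–IgG1 Fc (1.0 μg/mL) and exposed to compound (9-point, 0.08–1000 nM, 0.1% DMSO) for 1 h at 37 °C. Bound cells were read by CellTiter-Glo luminescence. IC50 came from 4-parameter fit of normalized % inhibition.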

| EC50 | Structure (SMILES) |
| --- | --- |
| 59 nM | Cc1cc2cc(c1F)[C@H](CC(=O)O)NC(=O)[C@@H](n1cc(CCN3CC(F)C3)c(C(F)(F)F)cc1=O)c1cccc(c1)Oc1cccc(C)c1-2 (relative stereo) [Example 1, rel-2-((5S,8S)-1^4-fluoro-5-(5-(2-(3-fluoroazetidin-1-yl)ethyl)-2-oxo-4-(trifluoromethyl)pyridin-1(2H)-yl)-1^5,2^6-dimethyl-6-oxo-3-oxa-7-aza-1,4(1,3),2(1,2)-tribenzenacyclooctaphane-8-yl)acetic acid] |
| 1.1 nM | Cc1cc2cc(c1F)[C@H](CC(=O)O)NC(=O)[C@@H](n1cc(CCN3CC(F)C3)c(C(F)(F)F)cc1=O)c1cc(ccc1F)Oc1cccc(C)c1-2 (relative stereo) [Example 7, [(14R*,17S)-12,19-difluoro-14-{5-[2-(3-fluoroazetidin-1-yl)ethyl]-2-oxo-4-(trifluoromethyl)pyridin-1-yl}-3,20-dimethyl-15-oxo-8-oxa-16-azatetracyclo[16.3.1.1^{9,13}.0^{2,7}]tricosa-1(21),2(7),3,5,9(23),10,12,18(22),19-nonaen-17-yl]acetic acid] |
| 360 nM | Cc1cc(C2CC2)cc2c1-c1cc(c(F)c(C(F)(F)F)c1)[C@H](CC(=O)O)NC(=O)[C@@H](n1cc(CCN3CC(F)C3)c(C(F)(F)F)cc1=O)c1cccc(c1)O2 (relative stereo) [Example 10, [(14R*,17S)-5-cyclopropyl-19-fluoro-14-{5-[2-(3-fluoroazetidin-1-yl)ethyl]-2-oxo-4-(trifluoromethyl)pyridin-1-yl}-3-methyl-15-oxo-20-(trifluoromethyl)-8-oxa-16-azatetracyclo[16.3.1.1^{9,13}.0^{2,7}]tricosa-1(21),2(7),3,5,9,11,13(23),18(22),19-nonaen-17-yl]acetic acid] |
| 28 nM | Cc1cccc2c1-c1cc(c(F)c(C(F)(F)F)c1)[C@H](CC(=O)O)NC(=O)[C@@H](n1cc(CCN3CC(F)C3)c(C(F)(F)F)cc1=O)c1cc(Cl)cc(c1)O2 (relative stereo) [Example 15, [(14R*,17S)-11-chloro-19-fluoro-14-{5-[2-(3-fluoroazetidin-1-yl)ethyl]-2-oxo-4-(trifluoromethyl)pyridin-1-yl}-3-methyl-15-oxo-20-(trifluoromethyl)-8-oxa-16-azatetracyclo[16.3.1.1^{9,13}.0^{2,7}]tricosa-1(22),2(7),3,5,9,11,13(23),18,20-nonaen-17-yl]acetic acid] |
| 9.2 nM | Cc1cc(C)c2c(c1)Oc1cccc(c1)[C@H](n1cc(CCCN(C)C)c(C(F)(F)F)cc1=O)C(=O)N[C@@H](CC(=O)O)c1cn-2nc1C(F)(F)F (relative stereo) [Example 18, [(13S,16R*)-16-{5-[3-(dimethylamino)propyl]-2-oxo-4-(trifluoromethyl)pyridin-1-yl}-5,7-dimethyl-15-oxo-11-(trifluoromethyl)-2-oxa-9,10,14-triazatetracyclo[15.3.1.1^{9,12}.0^{3,8}]docosa-1(20),3(8),4,6,10,12(22),17(21),18-octaen-13-yl]acetic acid] |
| 12 nM | Cc1cc2cc(c1F)[C@H](CC(=O)O)NC(=O)[C@@H](n1cc(CCN3CC(F)C3)c(C(F)(F)F)cc1=O)c1cc(Cl)cc(c1)Oc1cccc(C)c1-2 (single isomer, unassigned) [Example 3] |
| 340 nM | Cc1cc(Cl)cc2c1-c1cc(c(F)c(C(F)(F)F)c1)[C@H](CC(=O)O)NC(=O)[C@@H](n1cc(CCN3CC(F)C3)c(C(F)(F)F)cc1=O)c1cccc(c1)O2 (single isomer, unassigned) [Example 11] |

— patent US20240279214A1, “ALPHA4 BETA7 INEGRIN ANTAGONISTS AND USES THEREOF” (XinThera, Inc., priority 2022, published 2024)
